Reference: the supplement of paper PMC11208160

Assay: recombinant barcode read abundance after kanamycin selection (control-corrected) (log10(CPM+1)); higher = more efficient recombination; sequences stand for … in AGTGCAGAGAAAATCGGCCAGTTTTCTCTGCCTGCAGTCCGCATGCCGT…AGATTTATGCAGCGGACTGCCTTTCTCCCAAAGTGATAAACCGGACAGTATCATGGACCGGTTTTCCCGGTAATCCGTATTTGCAAGGTTGGTTTCACT; site = the 11-nt target
Procedure, shortened: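 This pooled E. coli screen matched targets with IS621 bridge RNA target-binding loops. Plating was done in duplicate on chloramphenicol/ampicillin LB agar as a control and on chloramphenicol/ampicillin/kanamycin plus 0.1 mM IPTG. Recombination efficiency reflects barcode counts at recombinant junctions as counts per million, averaged and control-corrected. The figures are log10(CPM+1).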
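Also: IS621 recombinase and bridge RNA in Escherichia coli cells.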

Sequence	recombinant barcode read abundance (log10)
TGGTATTCTTGGGTTCTAACCTGTTGCCT (site TGGTATGCTAG)	0.11
TGGTATTCTTGGGTTCTAACCTGTTGCCT (site TGGTATTCTAG)	0.373
TGGTCCGCTTGGGTTCTAACCTGTTGCCT (site TGGTACGCTAG)	0.257
TGGTCCGCTTGGGTTCTAACCTGTTGCCT (site TGGTCCGCTAG)	1.58
TGGTCCGCTTGGGTTCTAACCTGTTGCCT (site TGGTGCGCTAG)	0.0483
TGGTCCGCTTGGGTTCTAACCTGTTGCCT (site TGGTTCGCTAG)	0.243
TGGTGCCCTTGGGTTCTAACCTGTTGCGT (site TGGGGCCCTAG)	0.122
TGGTGCCCTTGGGTTCTAACCTGTTGCGT (site TGGTGCCCTAC)	1.83
TGGTTACCTTGGGTTCTAACCTGTTGCCT (site TGGTTACCTAG)	1.17
TGGTTACCTTGGGTTCTAACCTGTTGCCT (site TGTTTAACTAG)	0.0377
TGTACGTCTTGGGTTCTAACCTGTTGCTT (site TGTACGACTAG)	0.0847
TGTACGTCTTGGGTTCTAACCTGTTGCTT (site TGTACGTCTAA)	0.326
TGTAGAGCTTGGGTTCTAACCTGTTGCAG (site TGTAGAGCTCT)	0.872
TGTAGAGCTTGGGTTCTAACCTGTTGCAG (site TGTTGAGCTCT)	0.0298
TGTAGCACTTGGGTTCTAACCTGTTGCAC (site TGTAGCACTGT)	0.0233
TGTAGCACTTGGGTTCTAACCTGTTGCAC (site TGTCGCACTCT)	0.159
TGTAGTCCTTGGGTTCTAACCTGTTGCAT (site TGTAGTCCTAA)	0.232
TGTAGTCCTTGGGTTCTAACCTGTTGCAT (site TGTAGTCCTAC)	0.0299
TGTAGTCCTTGGGTTCTAACCTGTTGCAT (site TGTAGTCCTAG)	0.156
TGTAGTCCTTGGGTTCTAACCTGTTGCAT (site TGTAGTCCTAT)	0.097
TGTAGTCCTTGGGTTCTAACCTGTTGCCT (site TGTAGTCCTAA)	0.0423
TGTAGTCCTTGGGTTCTAACCTGTTGCCT (site TGTAGTCCTAC)	0.0647

Sequence	recombinant barcode read abundance (log10)
TGTAGTCCTTGGGTTCTAACCTGTTGCCT (site TGTAGTCCTAG)	0.26
TGTAGTCCTTGGGTTCTAACCTGTTGCCT (site TGTAGTCCTAT)	0.348
TGTATCGCTTGGGTTCTAACCTGTTGCCT (site TGTATCGCTAG)	0.405
TGTATCGCTTGGGTTCTAACCTGTTGCCT (site TGTCCCGCTAG)	0.149
TGTCAAACTTGGGTTCTAACCTGTTGCCT (site TGTCAAACTAG)	0.298
TGTCAAACTTGGGTTCTAACCTGTTGCCT (site TGTCAACCTAG)	0.176
TGTCAAACTTGGGTTCTAACCTGTTGCCT (site TGTCAAGCTAG)	0.145
TGTCAAACTTGGGTTCTAACCTGTTGCCT (site TGTCAATCTAG)	0.0654
TGTCAATCTTGGGTTCTAACCTGTTGCCT (site TGTCAAACTAG)	0.243
TGTCAATCTTGGGTTCTAACCTGTTGCCT (site TGTCAACCTAG)	0.061
TGTCAATCTTGGGTTCTAACCTGTTGCCT (site TGTCAAGCTAG)	0.0211
TGTCAATCTTGGGTTCTAACCTGTTGCCT (site TGTCAATCTAG)	0.0947
TGTCAATCTTGGGTTCTAACCTGTTGCGT (site TGTCAATCTAC)	0.543
TGTCAATCTTGGGTTCTAACCTGTTGCGT (site TGTCGATCTAG)	0.152
TGTCAGGCTTGGGTTCTAACCTGTTGCCT (site TGCTAGGCTAG)	0.187
TGTCAGGCTTGGGTTCTAACCTGTTGCCT (site TGTCAGGCTAG)	0.0749
TGTCGCACTTGGGTTCTAACCTGTTGCAG (site TGTAGCACTGT)	0.123
TGTCGCACTTGGGTTCTAACCTGTTGCAG (site TGTCGCACTCT)	0.313
TGTCTACCTTGGGTTCTAACCTGTTGCCT (site TGTCTACCTAG)	0.191
TGTCTACCTTGGGTTCTAACCTGTTGCCT (site TGTCTATCTAG)	0.653
TGTCTAGCTTGGGTTCTAACCTGTTGCCT (site TGACTAGCTAG)	0.486
TGTCTAGCTTGGGTTCTAACCTGTTGCCT (site TGCCTAGCTAG)	0.0303

Sequence	recombinant barcode read abundance (log10)
TGTCTAGCTTGGGTTCTAACCTGTTGCCT (site TGGCTAGCTAG)	0.0711
TGTCTAGCTTGGGTTCTAACCTGTTGCCT (site TGTCTAGCTAG)	0.038
TGTCTCCCTTGGGTTCTAACCTGTTGCCG (site TGTCTCCCTCG)	0.261
TGTCTCCCTTGGGTTCTAACCTGTTGCCG (site TGTGTCCCTCG)	0.108
TGTCTGCCTTGGGTTCTAACCTGTTGCCT (site AGTCTGCCTAG)	0.104
TGTCTGCCTTGGGTTCTAACCTGTTGCCT (site CGTCTGCCTAG)	0.122
TGTCTGCCTTGGGTTCTAACCTGTTGCCT (site GGTCTGCCTAG)	0.0534
TGTCTGCCTTGGGTTCTAACCTGTTGCCT (site TGTCTGCCTAG)	0.295
TGTGAGTCTTGGGTTCTAACCTGTTGCAT (site TGTGAGTCTAA)	0.107
TGTGAGTCTTGGGTTCTAACCTGTTGCAT (site TGTGAGTCTAC)	0.856
TGTGAGTCTTGGGTTCTAACCTGTTGCAT (site TGTGAGTCTAG)	0.149
TGTGAGTCTTGGGTTCTAACCTGTTGCAT (site TGTGAGTCTAT)	1.7
TGTGATCCTTGGGTTCTAACCTGTTGCAT (site TGAGATTCTAT)	0.0352
TGTGATCCTTGGGTTCTAACCTGTTGCAT (site TGTGATCCTAT)	1.4
TGTGCAACTTGGGTTCTAACCTGTTGCTG (site ATGCTTGCTTG)	0.353
TGTGCAACTTGGGTTCTAACCTGTTGCTG (site TGTGCAACTCA)	0.284
TGTGGAGCTTGGGTTCTAACCTGTTGCCG (site TGTAGAGCTCG)	0.448
TGTGGAGCTTGGGTTCTAACCTGTTGCCG (site TGTCGAGCTCG)	0.469
TGTGGAGCTTGGGTTCTAACCTGTTGCCG (site TGTGGAGCTCG)	1.24
TGTGGAGCTTGGGTTCTAACCTGTTGCCG (site TGTTGAGCTCG)	0.00933
TGTGTCCCTTGGGTTCTAACCTGTTGCCT (site TGAGTCCCTAG)	0.159
TGTGTCCCTTGGGTTCTAACCTGTTGCCT (site TGCGTCCCTAG)	0.139
